“And” between values parts separate entries of the source, which are not always exact repeats. Equal values may be shown once.
Key:
[1] = target: full-length wt-BTK enzyme (Homo sapiens (Human), UniProt Q06187); experiment: Biochemical kinase assay wt-BTK (IMAP)
In short: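 Compound and enzyme (final 1.2 nM) were pre-incubated for 1 h at RT, after which the reaction was started with 4 μM ATP plus 50 nM fluorescein-MBP substrate peptide. After 2 h in the dark, the IMAP progressive binding reagent stopped the reaction, and phosphorylation was read by fluorescence polarization.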

[2] = target: full-length BTK C481S enzyme (Homo sapiens (Human), UniProt Q06187, C481S); experiment: Biochemical kinase assay BTK C481S (IMAP)
Chain of full-length BTK C481S enzyme (Q06187 whole entry C481S): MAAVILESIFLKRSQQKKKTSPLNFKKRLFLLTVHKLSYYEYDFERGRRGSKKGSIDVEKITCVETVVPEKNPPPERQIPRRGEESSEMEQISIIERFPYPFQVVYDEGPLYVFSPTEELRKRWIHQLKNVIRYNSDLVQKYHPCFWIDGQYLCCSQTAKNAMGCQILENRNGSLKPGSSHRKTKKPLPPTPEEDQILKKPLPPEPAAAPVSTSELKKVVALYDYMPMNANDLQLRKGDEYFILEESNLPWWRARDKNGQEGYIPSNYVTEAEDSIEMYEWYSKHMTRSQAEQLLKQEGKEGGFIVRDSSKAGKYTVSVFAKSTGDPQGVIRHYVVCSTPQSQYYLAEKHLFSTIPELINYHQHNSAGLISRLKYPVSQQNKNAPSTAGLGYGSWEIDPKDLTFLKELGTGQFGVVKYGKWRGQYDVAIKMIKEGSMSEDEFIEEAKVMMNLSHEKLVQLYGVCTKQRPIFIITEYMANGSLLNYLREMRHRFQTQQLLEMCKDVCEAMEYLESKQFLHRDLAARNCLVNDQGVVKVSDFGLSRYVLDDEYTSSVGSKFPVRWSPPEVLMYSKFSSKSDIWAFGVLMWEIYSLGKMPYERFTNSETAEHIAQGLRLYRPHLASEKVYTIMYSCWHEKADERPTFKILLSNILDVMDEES
In short: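 IC50 values come from IMAP fluorescence polarization after quenching with progressive binding solution. The reaction ran 2 h at room temperature in the dark with 1.2 nM full-length C481S enzyme, 7 μM ATP and 50 nM fluorescein-labelled MBP-derived peptide, following a 1 h dark pre-incubation of compound with enzyme.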

[3] = tested on: wt-REC-1 mantle cell lymphoma cells; experiment: Cell proliferation assay wt-REC-1 (ATPlite, 72 hours); assay type: cell-based; conditions: 72 h; read-out: IC50 wt-REC-1
In short: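 Luminescent viability read over 72 h, start-of-incubation signal recorded separately to separate growth from cell death. Percentage growth referenced to compound-free 0.3% DMSO wells; IC50 from 4-parameter logistic fit.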

REC-1 T474I cell lines = experiment: Cell proliferation assay REC-1 BTK T474I knock-in cells (ATPlite, 72 hours); assay type: cell-based; conditions: Homo sapiens, Rec1; 72 hours; read-out: IC50 REC-1 T474I
In short: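 REC-1 cells carrying CRISPR knock-in mutant BTK, single-cell cloned and sequence-confirmed, were exposed to compound for 72 h and read by ATPlite luminescence. Percentage growth was calculated against the signal at the start of incubation and against untreated 0.3% DMSO wells as maximum growth.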

wt-BTK = wt-BTK (Homo sapiens (Human), UniProt Q06187); experiment: Binding kinetics measurements (Surface Plasmon Resonance) on wt-BTK; conditions: for Tau (h) wt-BTK (Act): target residence time, SPR; for Kd: binding affinity by Surface Plasmon Resonance (SPR)
Chain of wt-BTK (Q06187 whole entry): as the sequence (Q06187 whole entry C481S) above, with S481C counted along it
Protocol: (§1) Binding kinetics measurements on wt-BTK, BTK […], BTK […], BTK […] and BTK […] (Surface Plasmon Resonance) Streptavidin-coated chips (Cat. No. BR100531), disposables and maintenance kits for Biacore were purchased from Cytiva (Eindhoven, The Netherlands). […] Remaining streptavidin was blocked with biocytin. Immobilization was performed at 4° C. Subsequent assay steps were conducted at 22° C. After changing buffer to Biacore buffer with 1% (v/v) dimethylsulfoxide (DMSO), a pre-run was performed for a period of at least 30 min at a flow rate of 30 μl/min to obtain a stable surface. The kinetic constants of the compounds were determined with single cycle kinetics with five consecutive injections with an increasing compound concentration with ranges of 3.16-316 nM. […] To circumvent problems of mass transport limitation, a flow rate of 30 μl/min was used. A blank run with the same conditions was performed before the compound was injected. The SPR sensorgrams were analyzed with Biacore Evaluation Software by using a method of double referencing. First the reference channel was subtracted from the channel containing immobilized protein. Subsequently, the reference curve obtained with buffer injections was subtracted. […] Compounds that bound according to an induced fit model were fitted with a two-state reaction model. The kinetic constants (ka, […], KD) of duplicates were geometrically averaged. […] Target residence for an induced fit model was calculated as described (Tummino and Copeland, 2008).

BTK T474I = BTK T474I (Homo sapiens (Human), UniProt Q06187, T474I); experiment: Binding kinetics measurements (Surface Plasmon Resonance) on BTK T474I; conditions: for Tau (h) BTK T474I (Act): target residence time, SPR; for Kd: binding affinity by Surface Plasmon Resonance (SPR)
Chain of BTK T474I (Q06187 whole entry T474I): as the sequence (Q06187 whole entry C481S) above, with T474I, S481C counted along it
Protocol: as §1

[4] = tested on: wt-TMD8 diffuse large B-cell lymphoma cells; experiment: Cell proliferation assay wt-TMD8 (ATPlite, 120 hours); assay type: cell-based; conditions: B-cell; wt-TMD8 cells, 120 hours, ATPlite; read-out: IC50 wt-TMD8
In short: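 Readout is percentage growth from ATPlite 1Step luminescence after 5 days (120 h) compound treatment of wt-TMD8 lymphoma cells (1600/well, RPMI-1640 + 10% FBS). Time-zero signal separates growth inhibition from cell kill; 0.3% DMSO wells without compound define maximal growth.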

BTK C481S = BTK C481S (Homo sapiens (Human), UniProt Q06187, C481S); experiment: Binding kinetics measurements (Surface Plasmon Resonance) on BTK C481S; conditions: for Kd: binding affinity by Surface Plasmon Resonance (SPR); for Tau (h) BTK C418S (Act): target residence time for BTK C481S, SPR
Chain of BTK C481S (Q06187 whole entry C481S): as the sequence (Q06187 whole entry C481S) above
Protocol: as §1

Chain of full-length wt-BTK enzyme (Q06187 whole entry): as the sequence (Q06187 whole entry C481S) above, with S481C counted along it

Row | IC50 [1] | IC50 [2] | IC50 [3] | Tau (h) wt-BTK (Act) (wt-BTK) | Tau (h) BTK T474I (Act) (BTK T474I) | IC50 [4] | Kd (wt-BTK) | Kd (BTK C481S) | Tau (h) BTK C418S (Act) (BTK C481S) | Kd (BTK T474I) | Structure (SMILES) | IC50 (REC-1 T474I cell lines)
1 | < 5 nM | < 5 nM | < 100 nM | 4.79 h | 1.28 h | < 100 nM | – | – | – | – | Cn1nc(NC(=O)c2ccc(-c3nc4n5c(cnc(N)c35)/C=C/CCOCCC(=O)N[C@@H]3CC[C@@H]4C3)cc2)cc1C(F)(F)F [Example 216] | < 100 nM
2 | < 5 nM | < 5 nM | < 100 nM | 5.73 h | 4.17 h | < 100 nM | – | – | – | – | Nc1ncc2n3c(nc(-c4ccc(C(=O)Nc5cc(C(F)(F)F)ccn5)cc4)c13)[C@@H]1CC[C@H](C1)NC(=O)CCCCC/C=C/2 [Example 203] | < 100 nM
3 | < 5 nM | < 5 nM | < 100 nM | 5.31 h | 0.60 h | < 100 nM | – | – | – | – | Nc1ncc2n3c(nc(-c4ccc(C(=O)Nc5cc(C(F)F)ccn5)cc4)c13)[C@@H]1CC[C@H](C1)NC(=O)CCOCC/C=C/2 [Example 222] | 100 to 500 nM
4 | < 5 nM | < 5 nM | < 100 nM | 1.69 h | 0.54 h | < 100 nM | – | – | 1.28 h | – | N#Cc1ccnc(NC(=O)c2ccc(-c3nc4n5c(cnc(N)c35)/C=C/COCCC(=O)N[C@@H]3CC[C@@H]4C3)cc2)c1 [Example 199] | 500 to 10000 nM
5 | < 5 nM | < 5 nM | < 100 nM | 2.78 h | 0.70 h | < 100 nM | – | – | – | – | COc1ccnc(NC(=O)c2ccc(-c3nc4n5c(cnc(N)c35)/C=C/CCOCCC(=O)N[C@@H]3CC[C@@H]4C3)cc2)c1 [Example 217] | < 100 nM
6 | < 5 nM | < 5 nM | < 100 nM | 2.20 h | 2.16 h | < 100 nM | – | – | 3.15 h | – | Nc1ncc2n3c(nc(-c4ccc(C(=O)Nc5cc(C(F)(F)F)ccn5)cc4)c13)[C@@H]1CC[C@H](C1)NC(=O)CCOCC/C=C/2 [Example 202] | < 100 nM
7 | < 5 nM | < 5 nM | < 100 nM | 3.69 h | 1.60 h | < 100 nM | – | – | – | – | Nc1ncc2n3c(nc(-c4ccc(C(=O)Nc5cc(OC(F)F)ccn5)cc4)c13)[C@@H]1CC[C@H](C1)NC(=O)CCOCC/C=C/2 [Example 224] | < 100 nM
8 | < 5 nM | < 5 nM | < 100 nM | 1.80 h | 1.15 h | < 100 nM | – | – | – | – | N#Cc1ccnc(NC(=O)c2ccc(-c3nc4n5c(cnc(N)c35)/C=C/CCOCCC(=O)N[C@@H]3CCC[C@@H]4C3)cc2)c1 [Example 205] | < 100 nM
9 | < 5 nM | < 5 nM | < 100 nM | 9.76 h | 1.18 h | < 100 nM | – | – | – | – | Cc1ccnc(NC(=O)c2ccc(-c3nc4n5c(cnc(N)c35)/C=C/CCOCCC(=O)N[C@@H]3CC[C@@H]4C3)cc2)c1 [Example 215] | < 100 nM
10 | < 5 nM | < 5 nM | < 100 nM | 4.28 h | 1.44 h | < 100 nM | – | – | 18.16 h | – | Nc1ncc2n3c(nc(-c4ccc(C(=O)Nc5cc(C(F)(F)F)ccn5)cc4)c13)[C@@H]1CC[C@H](C1)NC(=O)CCOC/C=C/2 [Example 198] | –

Further lines, the compound ahead of its results:

Row | Structure (SMILES) | IC50 [1] | IC50 [2] | IC50 [3] | Tau (h) wt-BTK (Act) (wt-BTK) | Tau (h) BTK T474I (Act) (BTK T474I) | IC50 [4] | Kd (wt-BTK) | Kd (BTK C481S) | Tau (h) BTK C418S (Act) (BTK C481S) | Kd (BTK T474I) | IC50 (REC-1 T474I cell lines)
11 | Nc1ncc2c3c1c(-c1ccc(C(=O)Nc4cc(C(F)(F)F)ccn4)cc1)nn3[C@@H]1CCC[C@H](C1)NC(=O)CCCCCC2 [Example 114] | < 5 nM | < 5 nM | 100 to 1000 nM | – | – | < 100 nM | < 5 nM | < 5 nM | 1.85 h | 10 to 50 nM and < 5 nM | 500 to 10000 nM
12 | Nc1ncc2c3c1c(-c1ccc(C(=O)Nc4cc(C(F)(F)F)ccn4)cc1)nn3[C@@H]1COC[C@H](C1)NC(=O)CCOC/C=C/2 [Example 192] | < 5 nM | < 5 nM | < 100 nM | 3.61 h | 1.40 h | < 100 nM | < 5 nM | – | – | < 2 nM | < 100 nM
13 | Nc1ncc2c3c1c(-c1ccc(C(=O)Nc4cc(F)ccn4)cc1)nn3[C@@H]1CCC[C@H](C1)NC(=O)CCOC/C=C/2 [Example 189] | < 5 nM | < 5 nM | 1000 to 10000 nM | 4.17 h | 1.56 h | < 100 nM | < 5 nM | – | – | – | 500 to 10000 nM
14 | Nc1ncc2c3c1c(-c1ccc(C(=O)Nc4cc(F)ccn4)cc1)nn3[C@@H]1CCC[C@H](C1)NC(=O)CCOCC/C=C/2 [Example 193] | < 5 nM | < 5 nM | < 100 nM | 6.70 h | >24 h | < 100 nM | < 5 nM | – | – | < 2 nM | < 100 nM
15 | C[C@@H]1CC(=O)N[C@@H]2CC[C@H](C2)c2nc(-c3ccc(C(=O)Nc4cc(C(F)(F)F)ccn4)cc3)c3c(N)ncc(n23)/C=C/CCN1 [Example 207] | < 5 nM | < 5 nM | < 100 nM | 2.55 h | – | < 100 nM | < 5 nM | < 5 nM | 8.44 h | < 2 nM | 500 to 10000 nM
16 | COc1cc(-c2nn3c4c(cnc(N)c24)/C=C/CCOCCC(=O)N[C@@H]2CCC[C@@H]3C2)ccc1C(=O)Nc1cc(C(F)(F)F)ccn1 [Example 195] | < 5 nM | < 5 nM | < 100 nM | 3.73 h | 0.73 h | < 100 nM | < 5 nM | – | – | – | < 100 nM
17 | COc1ccc(F)cc1C(=O)NCc1ccc(-c2nc3n4c(cnc(N)c24)/C=C/CCOCCC(=O)N[C@@H]2CCC[C@@H]3C2)cc1 [Example 210] | < 5 nM | < 5 nM | < 100 nM | 1.22 h | 0.68 h | < 100 nM | < 5 nM | – | – | < 2 nM | < 100 nM
18 | COc1ccc(F)cc1C(=O)NCc1ccc(-c2nc3n4c(cnc(N)c24)/C=C/CCOCCC(=O)N[C@@H]2CC[C@@H]3C2)cc1 [Example 213] | < 5 nM | < 5 nM | < 100 nM | 2.29 h | 0.93 h | < 100 nM | < 5 nM | – | – | < 2 nM | < 100 nM
19 | N#Cc1ccnc(NC(=O)c2ccc(-c3nn4c5c(cnc(N)c35)/C=C/CCOCCC(=O)N[C@@H]3CC[C@@H]4C3)cc2)c1 [Example 185] | < 5 nM | < 5 nM | < 100 nM | 10.79 h | 1.26 h | < 100 nM | – | – | – | – | < 100 nM
20 | COc1ccc(F)cc1C(=O)NCc1ccc(-c2nc3n4c(cnc(N)c24)/C=C/COCCC(=O)N[C@@H]2CCC[C@@H]3C2)cc1 [Example 211] | < 5 nM | < 5 nM | < 100 nM | – | – | < 100 nM | < 5 nM | – | – | 10 to 50 nM and < 5 nM | 500 to 10000 nM

From patent US20250074911A1, “MACROCYCLIC BTK INHIBITORS” (Crossfire Oncology Holding B.V., priority 2021, published 2025)
